We go through 1 compound from article PMC5803267, “A small molecule inhibitor of Rheb selectively targets mTORC1 signaling” (Nature Communications, 2018).

The target of assay [1] is T1, Rheb-dependent mTORC1 kinase activity (Homo sapiens, UniProt Q15382).
T1 construct: using full-length Rheb and mTORC1 purified from mammalian cells via a Flag-Raptor handle; made in house; host or cells: HA-GST-Rheb: Freestyle 293-F cells transfected with pRK5-HA-GST-Rheb; mTORC1: HEK-293E cells stably expressing FLAG-Raptor
Kind of assay: Rheb-dependent mTORC1 in vitro kinase assay (Rheb-IVK). It is filed as biochemical.

For a further assay, the target named is T2, recombinant human mTOR (Homo sapiens, UniProt P42345).
T2 construct: GST (N); host or cells: insect cells
Kind of assay: Rheb-independent mTOR in vitro kinase assay (HotSpot, radiometric). It is filed as biochemical. To be noted: up to a concentration of 30 µM.

Assay [2] addresses T3, human Rheb protein (1–169) (Homo sapiens, UniProt Q15382).
T3 construct: human Rheb protein (1–169) was purified from BL21 (DE3) Escherichia coli; His-Smt (His-SUMO) (N, cleaved yes); made in house; host or cells: BL21 (DE3) Escherichia coli
Kind of assay: Isothermal calorimetry (ITC) of binding to Rheb. As for the experimental part:
For the STD-NMR fragment-based screen, HMQC-NMR, ITC, and crystallography, human Rheb protein (1–169) was purified from BL21 (DE3) Escherichia coli using a His-Smt-Rheb expression vector. The cell paste was lysed in lysis buffer (50 mM HEPES pH 7.5, 0.5 M NaCl, 5% Glycerol, 1% CHAPS, EDTA-free protease inhibitor tablets, lysozyme to 1 mg mL^−1, benzonase 250 U), sonicated, and purified on a HiTrap Ni Chelating Column (GE Healthcare) using the following buffer: 50 mM HEPES pH 7.5, 0.5 M NaCl, 5% Glycerol, and imidazole increasing in concentration from 5 mM to 500 mM. The His-Smt tag was cleaved using a Ulp1 enzyme and dialyzed into 50 mM HEPES pH 7.5, 0.5 M NaCl, 5% glycerol. The resultant protein was again purified on a Ni Chelating column to remove the Ulp1 enzyme and His-Smt tag and then purified by size exclusion chromatography on a Sephacryl S-100 26/60 column into the following final buffer: 20 mM NaPhos pH 7.0, 100 mM NaCl, 5 mM MgCl2, 2 mM TCEP. For HMQC NMR, ^15N-labeled Rheb was generated using the same protocol but grown in minimal medium supplemented with ^15N-labeled amino acids.
Supplementary Figure 8. Measurement of binding constant of NR1 with Rheb using isothermal
(1 picture or pasted object on this page, not shown here)

A further assay deals with Jurkat cells. Kind of assay: Cell size assay in Jurkat cells (forward scatter, flow cytometry). In kind it is cell-based, human. The note with it: 48 h incubation, dose-dependent. As for the experimental part:
Based on the dependence of cell size on mTORC1 activity, we assessed the effect of NR1 on the size of Jurkat cells, a human T cell line grown in suspension and responsive to mTORC1 inhibition.
(§1) Data are plotted as percent decrease in forward scatter. […] Error bars represent standard deviation of the mean of duplicates; graph represents data from one of two separate experiments
For the cell size assay, Jurkat Clone E-61 cells were plated in 96-well plates concurrent with compound. The cells were incubated at 37 °C and 5% CO2 for 48 h. PI stain (Invitrogen #727949) was added at a final concentration of 1 µg mL^−1, and cells were incubated for 15 min at room temperature. FACS analysis was performed; at least 10,000 events were collected for each sample. Viable cells (PI minus) were counted for FSC and SSC, and cell size (as measured by FSC) relative to the DMSO control was calculated.
For orientation: Flow cytometry measures light scatter and fluorescence of single cells or particles in a stream.

The next assay deals with MCF-7 cells. Kind of assay: Protein synthesis assay (35S-methionine incorporation) in MCF-7 cells. It is filed as cell-based, human. The note with it: MCF-7, 2.5 h compound, 35S-Met label 30 min. As for the experimental part: as §1
Another functional correlate dependent on mTORC1 activity is protein synthesis. […] The functional effects of NR1 on cell size and protein synthesis are consistent with the observed selective inhibition of mTORC1 pathway signaling.
The protein synthesis assay was performed by incubation of MCF7 cells with compounds in MEM + 10% dialyzed FBS for 2.5 h and then incubated in labeling mix (compounds, Met- and Cys-free media, 10% dialyzed FBS, and ^35S protein labeling mix) for 30 min. Cells were lysed, proteins were precipitated, and resuspended pellets were read on a Microbeta 2.

In assay [3] the test system is mTORC1 activity (S240/244pS6) in skeletal muscle. Kind of assay: PD study: feeding-induced mTORC1 activation in gastrocnemius muscle. The note with it: mice fasted 16 h, 30 mg kg^−1 IP, re-fed 2 h. In kind it is in vivo, mouse. As for the experimental part: The selective inhibition of mTORC1 activation by NR1 in vitro and in cell-based systems prompted us to evaluate the effect of this compound on mTORC1 activity in vivo. […] In particular, the plasma concentration of NR1 was sustained over 5 µM for 2 h after IP administration of a 30 mg kg^−1 dose (Supplementary Fig. 10). We therefore carried out a pharmacodynamic (PD) study to evaluate the efficacy of NR1 at inhibiting mTORC1 signaling in vivo. In this experiment, mice were starved overnight to achieve a low basal level of mTORC1 activation (pre-dose). After a 16 h fast, the animals were treated with either vehicle or 30 mg kg^−1 NR1 and allowed to re-feed for 2 h before sacrifice and tissue collection. mTORC1 activity was measured by quantification of ^S240/244pS6 by Western blot analysis with a specific antibody. We chose kidney and gastrocnemius muscle as target tissues due to the relevance of mTORC1 in renal cell carcinoma[51] and angiomyolipomas in TSC and LAM[12] and for its important role in the regulation of protein synthesis and muscle mass[52]. The results are summarized in Fig. 6 for skeletal muscle and Supplementary Fig. 11 for kidney.
Fig. 6 NR1 inhibits feeding-induced mTORC1 activation in skeletal muscle. […] After 2 h, gastrocnemius muscle was collected, and ^S240/244pS6 levels were measured by Western blot and quantified. […]

pIC50, pKd: −log10 of the molar value.

T3 sequence (Q15382 1-169): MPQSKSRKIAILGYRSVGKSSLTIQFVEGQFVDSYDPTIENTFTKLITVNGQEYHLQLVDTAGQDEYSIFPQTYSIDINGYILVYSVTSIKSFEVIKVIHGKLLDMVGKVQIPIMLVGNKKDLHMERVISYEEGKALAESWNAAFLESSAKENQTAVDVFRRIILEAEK
T1 sequence (Q15382 1-181 limits assumed): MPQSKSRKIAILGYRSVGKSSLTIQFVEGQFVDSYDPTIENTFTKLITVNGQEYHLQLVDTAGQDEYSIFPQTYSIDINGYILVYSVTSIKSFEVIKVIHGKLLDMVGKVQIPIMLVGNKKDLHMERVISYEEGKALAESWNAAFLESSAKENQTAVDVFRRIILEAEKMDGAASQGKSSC
T2 sequence (P42345 1360-2549): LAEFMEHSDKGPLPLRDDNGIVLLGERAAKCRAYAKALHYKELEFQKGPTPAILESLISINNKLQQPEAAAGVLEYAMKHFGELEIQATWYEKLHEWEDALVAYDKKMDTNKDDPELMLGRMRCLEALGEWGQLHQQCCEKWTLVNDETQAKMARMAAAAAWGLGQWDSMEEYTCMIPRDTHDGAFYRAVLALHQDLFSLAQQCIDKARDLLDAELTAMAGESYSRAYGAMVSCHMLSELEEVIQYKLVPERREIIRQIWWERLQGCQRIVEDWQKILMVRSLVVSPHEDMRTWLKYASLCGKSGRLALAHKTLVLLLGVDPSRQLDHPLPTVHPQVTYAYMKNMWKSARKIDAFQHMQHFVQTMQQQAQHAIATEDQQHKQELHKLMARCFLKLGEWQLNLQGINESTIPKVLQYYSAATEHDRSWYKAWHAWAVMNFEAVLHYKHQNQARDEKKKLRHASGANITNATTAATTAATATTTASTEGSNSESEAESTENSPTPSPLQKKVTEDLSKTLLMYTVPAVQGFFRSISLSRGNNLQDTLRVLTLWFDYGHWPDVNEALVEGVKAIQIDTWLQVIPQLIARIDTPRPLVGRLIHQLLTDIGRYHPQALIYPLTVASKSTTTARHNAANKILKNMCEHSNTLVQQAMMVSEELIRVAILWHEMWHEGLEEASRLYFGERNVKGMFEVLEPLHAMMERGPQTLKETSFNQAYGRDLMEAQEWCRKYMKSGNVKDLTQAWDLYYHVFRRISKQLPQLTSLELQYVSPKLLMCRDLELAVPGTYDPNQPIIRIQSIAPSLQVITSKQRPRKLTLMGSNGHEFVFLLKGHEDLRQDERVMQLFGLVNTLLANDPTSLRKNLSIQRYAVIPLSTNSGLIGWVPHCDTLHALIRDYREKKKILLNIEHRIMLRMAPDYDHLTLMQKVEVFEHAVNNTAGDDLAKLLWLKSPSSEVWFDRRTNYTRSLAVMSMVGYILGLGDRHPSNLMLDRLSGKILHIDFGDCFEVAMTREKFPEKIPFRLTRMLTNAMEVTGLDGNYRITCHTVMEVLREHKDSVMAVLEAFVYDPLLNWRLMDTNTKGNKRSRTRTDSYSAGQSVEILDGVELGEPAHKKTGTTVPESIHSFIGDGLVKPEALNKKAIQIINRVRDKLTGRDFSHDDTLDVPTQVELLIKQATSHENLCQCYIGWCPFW

In general, pIC50 refers to the negative decadic logarithm of the IC50, by convention in mol/L. A low value points to a high IC50. In general, pKd refers to the negative decadic logarithm of the Kd, by convention in mol/L. A lower pKd goes with a high Kd. The compound `CN(C)C(=O)c1ccc(Cn2c(C(=O)O)cc3c(Br)cc(Sc4ccc(Cl)c(Cl)c4)cc32)cc1` [NR1, 4-bromo-6-(3,4-dichlorophenylthio)-1-(4-(dimethylcarbamoyl)benzyl)-1H-indole-2-carboxylic acid] had a pIC50 in assay [1] of 5.68. For the same compound, on recombinant human mTOR, the “inhibitory activity in HotSpot” value is given as “no inhibitory activity”. In addition, in assay [2], the pKd is 5.82 and the ΔH of binding result is given as “–0.315 kcal mol^−1”. The “size of Jurkat cells” value in the assay on Jurkat cells is “effectively reduced the size”. Moreover, the protein synthesis result in the assay on MCF-7 cells is given as “dose-dependently reduce protein synthesis”. In assay [3], the “T37/46 4E-BP1 in skeletal muscle” value is reported as “clear band shift” and the “mTORC1 activity (S240/244pS6) in skeletal muscle versus vehicle” value is given as “significantly reduced mTORC1 activity”.
